{"source": "patent US11604184B2", "about": "“Juvenile atopic dermatitis models” (Laboratoires Expanscience, priority 2016, dated 2023)", "system": "S. aureus biofilm", "test": "Model for studying S. aureus biofilm on reconstructed epidermises (scanning electron microscopy)", "format": "cell-based, Staphylococcus aureus (MRSA; ATCC 33591)", "settings": "24 hours after colonization", "procedure": "The test products (P1, P5 or P8) or 5% xylitol (positive control for inhibition of biofilm formation) were applied topically to reconstructed epidermises at a rate of 30 μL/epidermis, after undergoing slight surface abrasion.\nAfter incubation overnight, the products were removed by rinsing and a 2·10^6 cfu inoculum of Staphylococcus aureus (methicillin-resistant S. aureus, MRSA; ATCC 33591) was applied to the surface of the reconstructed epidermises.\nBiofilm formation and the effect of the product thereon were observed visually by scanning electron microscopy (SEM) 6 and 24 hours after colonization."}
{"smiles": "OC[C@@H](O)[C@H](O)[C@@H](O)CO", "note": "[xylitol]", "values": [{"measurement": "S. aureus biofilm formation on the surface of epidermises, observed by SEM (in words)", "value": "did not produce biofilm"}]}
